Reference: patent publication US20140221286A1, “SODIUM CHANNEL BLOCKERS REDUCE GLUCAGON SECRETION” (Gilead Sciences, Inc., priority 2011, published 2014)

Columns and labels:
α-TC1 clone 9 cells = format: cell-based; details: for Glucagon Secretion % Inhibition: veratridine-induced (30 μM for 1 hour), at a given concentration (not given)
Method: (§1) Voltage-dependent block (VDB) of […] was determined by whole-cell voltage-clamp recordings of sodium current using a QPatch 16× automated electrophysiological system in HEK 293 cells overexpressing Nav 1.3 and Nav 1.7 sodium channels, respectively. VDB of peak current was measured using an 8 s conditioning prepulse (to -55 mV for NaV1.3 and to −60 mV for […]) followed by a test pulse (0 mV, 20 ms). Currents are normalized to the peak current recorded in the absence of drug and expressed as percent inhibition. […] Glucagon secretion in the cells was induced by the treatment with veratridine at 30 μM for 1 hour in Krebs-Ringer buffer containing 0.1% BSA. Percent inhibition of glucagon secretion by Na channel blockers was calculated from the reduction of veratridine-induced glucagon secretion in the absence of drug.
Cells were seeded at 0.4×10^5/well in 96-well plates and allowed to recover for 1 day. The media was then changed to serum-free DMEM and incubated overnight. Cells were then treated with sodium-channel blockers in the presence of veratridine (15 μM) in Krebs-Ringer buffer containing 0.1% BSA and 3 mM glucose for 1 h. Supernatants were collected and stored at −80° C. until analysis. Glucagon levels were measured by an ELISA kit.

hNaV1.3 = molecular target: T1, hNaV1.3 (Homo sapiens, UniProt Q9NY46); experiment: Voltage-dependent block (VDB) of hNaV1.3, QPatch whole-cell voltage-clamp in HEK-293 cells; format: cell-based; details: 8 s prepulse to -55 mV; at a given concentration (not given)
T1 construct: (Vanderbilt University, Nashville, Tenn.)
Method: as §1
(Vanderbilt University, Nashville, Tenn.). The cells were continuously maintained in a humidified, 5% CO2 atmosphere at 37° C. in DMEM high glucose growth medium supplemented with 10% FBS, 2 mM L-glutamine, 100 U/mL penicillin, 100 μg/mL streptomycin, 1 mg/mL G418 and 3 μg/mL puromycin.
(§2) Whole-cell voltage-clamp recordings were used to measure the activity of test compounds against hNaV1.3 and hNaV1.7. Sodium currents were recorded at room temperature using a QPatch 16× automated electrophysiological system (Sophion Bioscience, Copenhagen, Denmark). Cells were washed with PBS and then incubated with Detachin for 2 minutes at room temperature. Cells were then resuspended in growth media, pelleted by centrifugation and resuspended in CHO-S-SFM II serum free media supplemented with 100 U/mL penicillin, 100 μg/mL streptomycin and 10 mM HEPES. The cells were allowed to recover for 30 min at room temperature with constant stirring and then loaded into the QPatch cell holder.
(§3) The cells were loaded into primed single hole (2 MΩ) large QPlates and the whole-cell configuration was established using the default protocol. Cells were allowed to stabilize for 10 min after establishment of the whole-cell configuration before current was measured. […] All currents are low-pass Bessel filtered at 5 kHz and digitized at 50 kHz.
(§4) Specific voltage-clamp protocols assessing voltage-dependent block (VDB, also termed state-dependent block) are used. VDB of peak current was measured following an 8 s conditioning prepulse (to -55 mV for NaV1.3 and to −60 mV for NaV1.7) followed by a test pulse to 0 mV (20 ms). An interpulse (−120 mV, 10 ms) was used to recover non-drug bound channels from fast inactivation. The prepulse potential was determined by the steady-state inactivation curves for NaV1.3 and NaV1.7. […] Multiple applications of drug were used to ensure complete solution exchange and the cells were allowed to stabilize in the drug containing solution for two minutes. Currents were normalized to the peak current recorded in the absence of drug and expressed as percent inhibition.

hNaV1.7 = hNaV1.7 (Homo sapiens, UniProt Q15858); experiment: Voltage-dependent block (VDB) of hNaV1.7, QPatch whole-cell voltage-clamp in HEK-293 cells; format: cell-based; details: 8 s prepulse to −60 mV; at a given concentration (not given)
Method: as §1
The cells were continuously maintained in a humidified, 5% CO2 atmosphere at 37° C. in MEM growth medium supplemented with 10% FBS, 2 mM L-glutamine, 100 U/mL penicillin, 100 μg/mL streptomycin, 0.6 mg/mL G418 and 2 μg/mL blastocydin.
as §2, §3, §4

rat pancreatic islets [1] = experiment: Glucagon secretion in rat pancreatic islets under low glucose (3 mM), ELISA; format: cell-based
rat pancreatic islets [2] = experiment: Veratridine-induced glucagon secretion in rat pancreatic islets; format: cell-based
human pancreatic islets = experiment: Veratridine-induced glucagon secretion in human pancreatic islets; format: cell-based; details: veratridine 30 μM
ZDF diabetic rats = experiment: ZDF diabetic rats, animal model of type 2 diabetes; format: in vivo, rat
Method: All sections from fluorescent staining were viewed under fluorescent microscope and the stained areas were digitally photographed at a magnification of 20×. The images taken at different magnification were normalized using the standard ruler grade (S1 Finder Graticule, 68040, Electron Microscopy Science, Hatfield, Pa.). Analyses of islet areas and entire section areas were performed using ImageJ software (NIH, MD). Three sections from each of 6 animals per treatment group were analyzed. Data are presented as mean±SEM. *, p<0.05; **, p<0.01; ***, p<0.001 by One-way ANOVA.
Male ZDF Leprfa/Crl rats were received at 5 weeks of age from Charles River Laboratories Inc., (Wilmington, Mass.) and were acclimated until study initiation at 6 weeks of age. Drugs were given to the animals in Purina 5008 for 10 weeks at doses approximately 170 mg/kg/d of ranolazine, 0.6 mg/kg/d of compound A and 30 mg/kg/d of sitagliptin as positive control. Fasting (12-14 h fast) and non-fasting blood samples were obtained by tail-nick and blood glucose was measured using a Freestyle Lite glucose meter (Abbott Laboratories Inc., Abbott Park, Ill.). HbA1c levels were monitored every other week. Twenty four hour water consumption as surrogate marker for diabetes for each rat was measured at least once per week.

T1 sequence (Q9NY46 1-1951 isoform Q9NY46-4): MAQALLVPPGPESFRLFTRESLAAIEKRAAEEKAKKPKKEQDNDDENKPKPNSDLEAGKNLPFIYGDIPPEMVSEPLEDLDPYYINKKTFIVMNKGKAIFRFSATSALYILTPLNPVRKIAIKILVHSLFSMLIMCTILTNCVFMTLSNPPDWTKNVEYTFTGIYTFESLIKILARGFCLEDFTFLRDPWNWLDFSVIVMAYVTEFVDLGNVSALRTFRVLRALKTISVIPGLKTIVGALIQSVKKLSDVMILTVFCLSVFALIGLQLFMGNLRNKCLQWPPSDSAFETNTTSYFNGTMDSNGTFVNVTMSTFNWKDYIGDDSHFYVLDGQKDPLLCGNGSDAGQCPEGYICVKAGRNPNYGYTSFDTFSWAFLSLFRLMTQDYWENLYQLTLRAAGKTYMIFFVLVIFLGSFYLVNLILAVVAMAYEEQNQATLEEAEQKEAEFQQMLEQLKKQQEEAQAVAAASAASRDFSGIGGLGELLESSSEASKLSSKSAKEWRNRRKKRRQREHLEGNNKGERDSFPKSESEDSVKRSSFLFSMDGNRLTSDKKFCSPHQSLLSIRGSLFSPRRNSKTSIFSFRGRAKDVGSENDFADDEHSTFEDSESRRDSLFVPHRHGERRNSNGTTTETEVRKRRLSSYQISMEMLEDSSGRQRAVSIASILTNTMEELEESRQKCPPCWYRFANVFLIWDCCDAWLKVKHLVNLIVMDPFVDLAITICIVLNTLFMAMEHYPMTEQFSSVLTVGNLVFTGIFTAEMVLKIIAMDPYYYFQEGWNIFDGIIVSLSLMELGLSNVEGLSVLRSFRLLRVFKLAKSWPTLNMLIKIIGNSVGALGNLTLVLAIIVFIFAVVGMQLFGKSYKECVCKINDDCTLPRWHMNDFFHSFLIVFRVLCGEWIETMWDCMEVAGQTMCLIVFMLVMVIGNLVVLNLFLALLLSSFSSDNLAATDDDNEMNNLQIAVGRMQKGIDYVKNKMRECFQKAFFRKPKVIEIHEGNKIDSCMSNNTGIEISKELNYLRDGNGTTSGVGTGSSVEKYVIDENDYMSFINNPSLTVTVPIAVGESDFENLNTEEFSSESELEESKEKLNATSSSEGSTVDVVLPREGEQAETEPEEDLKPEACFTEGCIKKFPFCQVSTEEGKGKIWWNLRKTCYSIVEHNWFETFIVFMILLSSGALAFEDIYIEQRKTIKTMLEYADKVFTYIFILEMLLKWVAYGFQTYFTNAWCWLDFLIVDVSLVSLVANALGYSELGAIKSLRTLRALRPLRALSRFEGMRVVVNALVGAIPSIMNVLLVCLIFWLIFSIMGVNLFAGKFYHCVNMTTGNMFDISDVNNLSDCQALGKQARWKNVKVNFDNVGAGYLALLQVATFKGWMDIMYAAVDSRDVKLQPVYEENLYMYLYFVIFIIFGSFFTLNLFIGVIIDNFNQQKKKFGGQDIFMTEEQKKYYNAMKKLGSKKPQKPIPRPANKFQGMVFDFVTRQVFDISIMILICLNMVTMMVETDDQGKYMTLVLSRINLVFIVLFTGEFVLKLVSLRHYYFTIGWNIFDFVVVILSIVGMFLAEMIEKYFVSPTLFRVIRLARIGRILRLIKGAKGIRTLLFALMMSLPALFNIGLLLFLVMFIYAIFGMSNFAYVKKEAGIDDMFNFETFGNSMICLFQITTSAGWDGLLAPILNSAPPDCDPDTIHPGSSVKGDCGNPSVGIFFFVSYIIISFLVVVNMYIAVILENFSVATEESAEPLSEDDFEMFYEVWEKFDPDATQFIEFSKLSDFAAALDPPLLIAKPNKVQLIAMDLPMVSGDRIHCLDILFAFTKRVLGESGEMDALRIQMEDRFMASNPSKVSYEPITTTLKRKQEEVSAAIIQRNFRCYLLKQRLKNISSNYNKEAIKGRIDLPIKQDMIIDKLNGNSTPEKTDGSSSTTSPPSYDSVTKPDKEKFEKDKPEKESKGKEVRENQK
T1 sequence (Q07699 19-218 partner): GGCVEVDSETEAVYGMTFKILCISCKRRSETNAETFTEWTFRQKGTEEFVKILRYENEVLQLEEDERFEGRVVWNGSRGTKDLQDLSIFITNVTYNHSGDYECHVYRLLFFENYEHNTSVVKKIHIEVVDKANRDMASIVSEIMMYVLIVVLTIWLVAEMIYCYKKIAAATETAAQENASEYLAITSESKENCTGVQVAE
T1 sequence (O60939 30-215 partner): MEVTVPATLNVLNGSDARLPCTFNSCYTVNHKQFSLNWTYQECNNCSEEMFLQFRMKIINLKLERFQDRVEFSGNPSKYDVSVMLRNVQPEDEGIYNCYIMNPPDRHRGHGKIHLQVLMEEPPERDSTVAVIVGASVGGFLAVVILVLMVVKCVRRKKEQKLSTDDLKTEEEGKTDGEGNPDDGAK
Chain of hNaV1.7 (Q15858 1-1977 isoform Q15858-3): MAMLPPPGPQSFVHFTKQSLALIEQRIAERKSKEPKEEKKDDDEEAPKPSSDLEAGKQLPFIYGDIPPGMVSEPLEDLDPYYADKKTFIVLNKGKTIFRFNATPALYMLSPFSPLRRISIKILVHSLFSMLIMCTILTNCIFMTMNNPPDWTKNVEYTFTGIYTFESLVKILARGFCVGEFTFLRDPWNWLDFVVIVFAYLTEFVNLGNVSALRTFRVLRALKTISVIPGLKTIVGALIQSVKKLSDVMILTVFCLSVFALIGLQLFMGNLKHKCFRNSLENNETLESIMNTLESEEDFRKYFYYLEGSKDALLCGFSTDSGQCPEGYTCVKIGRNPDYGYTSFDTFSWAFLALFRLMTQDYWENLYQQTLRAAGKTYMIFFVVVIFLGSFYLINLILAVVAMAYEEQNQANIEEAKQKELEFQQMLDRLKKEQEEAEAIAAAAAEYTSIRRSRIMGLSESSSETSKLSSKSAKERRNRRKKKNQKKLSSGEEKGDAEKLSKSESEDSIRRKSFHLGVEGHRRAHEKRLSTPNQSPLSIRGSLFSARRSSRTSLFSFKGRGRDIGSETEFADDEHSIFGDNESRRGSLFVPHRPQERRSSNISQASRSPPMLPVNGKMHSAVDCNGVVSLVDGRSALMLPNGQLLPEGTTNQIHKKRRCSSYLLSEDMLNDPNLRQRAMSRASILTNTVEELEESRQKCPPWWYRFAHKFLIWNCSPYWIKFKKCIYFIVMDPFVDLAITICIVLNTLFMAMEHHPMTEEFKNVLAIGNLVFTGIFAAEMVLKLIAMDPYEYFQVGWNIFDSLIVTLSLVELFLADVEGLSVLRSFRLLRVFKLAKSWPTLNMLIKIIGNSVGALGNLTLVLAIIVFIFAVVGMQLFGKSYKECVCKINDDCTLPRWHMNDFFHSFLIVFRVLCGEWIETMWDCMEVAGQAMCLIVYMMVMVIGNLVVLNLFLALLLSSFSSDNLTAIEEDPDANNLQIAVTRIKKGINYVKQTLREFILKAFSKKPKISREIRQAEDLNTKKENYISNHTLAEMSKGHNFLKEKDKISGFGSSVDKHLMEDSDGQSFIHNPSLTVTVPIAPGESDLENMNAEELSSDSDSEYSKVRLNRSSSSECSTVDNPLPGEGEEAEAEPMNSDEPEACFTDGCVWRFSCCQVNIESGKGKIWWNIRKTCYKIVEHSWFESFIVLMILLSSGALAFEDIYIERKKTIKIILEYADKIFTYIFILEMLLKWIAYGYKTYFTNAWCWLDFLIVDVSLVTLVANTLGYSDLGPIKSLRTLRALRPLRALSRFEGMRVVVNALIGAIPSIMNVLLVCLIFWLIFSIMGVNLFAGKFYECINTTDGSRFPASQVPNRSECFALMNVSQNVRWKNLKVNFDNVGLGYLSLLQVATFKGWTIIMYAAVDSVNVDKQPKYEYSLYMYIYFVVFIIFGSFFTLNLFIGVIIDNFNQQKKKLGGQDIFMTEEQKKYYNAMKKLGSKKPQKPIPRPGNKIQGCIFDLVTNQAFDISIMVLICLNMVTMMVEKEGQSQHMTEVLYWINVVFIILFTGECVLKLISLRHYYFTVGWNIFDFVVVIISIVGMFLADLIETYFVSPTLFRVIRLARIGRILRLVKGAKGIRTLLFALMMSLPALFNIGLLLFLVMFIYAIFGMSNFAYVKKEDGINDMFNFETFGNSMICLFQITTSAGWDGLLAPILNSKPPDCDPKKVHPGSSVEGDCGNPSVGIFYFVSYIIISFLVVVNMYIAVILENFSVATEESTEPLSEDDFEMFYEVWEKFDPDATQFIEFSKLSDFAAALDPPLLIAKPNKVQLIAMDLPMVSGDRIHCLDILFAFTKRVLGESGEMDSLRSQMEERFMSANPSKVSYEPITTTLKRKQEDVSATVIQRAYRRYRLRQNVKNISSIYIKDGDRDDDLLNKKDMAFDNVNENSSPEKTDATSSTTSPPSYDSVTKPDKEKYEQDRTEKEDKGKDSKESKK
Chain of hNaV1.7 (Q07699 19-218 partner): as the sequence (Q07699 19-218 partner) above

Compound	Glucagon Secretion % Inhibition (α-TC1 clone 9 cells) [%]	hNav1.3 VDB % Inhibition (hNaV1.3) [%]	hNav1.7 VDB % Inhibition (hNaV1.7) [%]	also measured
O=C(NCc1ccc(C(F)(F)F)c(Cl)c1)c1ccc(S(=O)(=O)Nc2ncc(Cl)s2)cc1 [C, N-(3-chloro-4-(trifluoromethyl)benzyl)-4-(N-(5-chlorothiazol-2-yl)sulfamoyl)benzamide]	41	92.16	7.81	
FC(F)(F)Oc1ccc(-c2ccc3nnc(Oc4ccccc4)n3c2)cc1 [D, 3-phenoxy-6-(4-(trifluoromethoxy)phenyl)-[1,2,4]triazolo[4,3-a]pyridine]	33.75	49.35	89.74	
CC(C)(C)OC(=O)N[C@H](Cc1ccccc1)C(=O)N[C@@H]1CCc2ccccc2N(CC(F)(F)F)C1 [E, tert-butyl (R)-1-oxo-3-phenyl-1-((R)-1-(2,2,2-trifluoroethyl)-2,3,4,5-tetrahydro-1H-benzo[b]azepin-3-ylamino)propan-2-ylcarbamate]	34.53	23.18	23.73	
COCC(F)(F)c1nnc2ccc(-c3ccc(Oc4ccc(Cl)cc4)cc3)cn12 [F, 6-(4-(4-chlorophenoxy)phenyl)-3-(1,1-difluoro-2-methoxyethyl)-[1,2,4]triazolo[4,3-a]pyridine]	4	2.32	14.72	
CS(=O)(=O)Nc1ccc(-c2ccc(Cl)c(C(F)(F)F)c2)c(Cl)c1 [G, N-(2,4′-dichloro-3′-(trifluoromethyl)biphenyl-4-yl)methanesulfonamide]	3.5	4.01	6.04	
NC1=N[C@H](O)[C@H]2[C@H]3O[C@]4(O)O[C@@H]([C@@H](O)[C@@]2(N1)[C@@H]4O)[C@]3(O)CO [TTX, tetrodotoxin]				maximal reduction of glucagon secretion as compared to the vehicle control (rat pancreatic islets [1]): 47±6%; reduction of veratridine-induced glucagon secretion (in words) (rat pancreatic islets [2]): concentration-dependently reduced; reduction of veratridine-induced increase of glucagon secretion (α-TC1 clone 9 cells): 100±6%
COc1ccc(C(=O)O[C@H]2CC[C@@]3(C)[C@@H]4CC[C@H]5[C@]6(O)C[C@H](O)[C@@]7(O)[C@@H](CN8C[C@@H](C)CC[C@H]8[C@@]7(C)O)[C@]6(O)C[C@@]53O[C@]24O)cc1OC [Veratridine]				increase in glucagon secretion (rat pancreatic islets [2]; veratridine at 30 μM): more than 3 fold; increase in glucagon secretion (human pancreatic islets): ~9 fold
N[C@@H](CC(=O)N1CCn2c(nnc2C(F)(F)F)C1)Cc1cc(F)c(F)cc1F [sitagliptin]				insulin staining per islet (ZDF diabetic rats; 10 weeks treatment): 90.0±2.1%; islet area/pancreas area (ZDF diabetic rats; 10 weeks treatment): 0.98±0.3%; staining of glucagon per islet versus vehicle (ZDF diabetic rats; 10 weeks treatment): significantly less; water consumption (surrogate marker for diabetes) (ZDF diabetic rats; in Purina 5008 diet, during diabetes development): significantly prevented the increase; HbA1c levels versus vehicle group (ZDF diabetic rats; in Purina 5008 diet, weeks 4, 6 and 8): significantly lower; fasting plasma glucose levels versus vehicle (ZDF diabetic rats; in Purina 5008 diet, weeks 7 and 9): significantly lower
